Measurements from ChEMBL document CHEMBL5724696, “Autophagy assay results for EUbOPEN Chemogenomics Library” (2024).

What was measured:
[1] = system: U2OS; assay: (§1) Here: values are normalized to the negative (DMSO; defined as 0% autophagy induction) and positive (250nM Torin1; mTOR inhibitor; defined as maximal inducer of autophagy = 100%) control compounds and represented as % of autophagy induction. […] The impact of autophagy induction on cells is complex and depends on the affected target. As such, the magnitude of a phenotype may not be equally mirrored in the %-value of autophagy induction and vice versa. The dynamics of the induction may indicate the mode of activation: e.g. activation via phosphorylation or a signaling cascade may occur fast, while activation via transcription factors may take considerably longer. […] Of note, treatment concentrations may be sub-optimal for specific compounds, leading to false negative annotations.; assay type: functional, Homo sapiens; settings: Culturing Media DMEM, 1 % Penicillin/Streptomycin, 10% Fetal bovin serum Add-On: No, Screening Media Control DMEM, Screening Media Samples DMEM
[2] = system: U2OS; assay: as §1; assay type: functional, Homo sapiens; settings: Culturing Media DMEM, 1 % Penicillin/Streptomycin, 10% Fetal bovin serum Add-On: No, Screening Media Control DMEM, Screening Media Samples DMEM; remark: listed apart in the source
[3] = Compound Concentration 0.5 uM, Timepoint 12 hours
[4] = Compound Concentration 0.5 uM, Timepoint 24 hours
[5] = Compound Concentration 0.5 uM, Timepoint 36 hours
[6] = Compound Concentration 0.5 uM, Timepoint 60 hours
[7] = Compound Concentration 2 uM, Timepoint 12 hours
[8] = Compound Concentration 2 uM, Timepoint 24 hours
[9] = Compound Concentration 2 uM, Timepoint 36 hours
[10] = Compound Concentration 2 uM, Timepoint 60 hours
[11] = Compound Concentration 10 uM, Timepoint 12 hours
[12] = Compound Concentration 10 uM, Timepoint 24 hours
[13] = Compound Concentration 10 uM, Timepoint 36 hours
[14] = Compound Concentration 10 uM, Timepoint 60 hours

Question: How did the autophagy induction [1, 3] turn out when N[C@H](C(=O)O)c1ccc(C(=O)O)c(C(=O)O)c1 was run?
Answer: -6.378%

Question: What about the autophagy induction [1, 4] of the same compound?
Answer: -5.676%

Question: What about the autophagy induction [1, 5] of the same compound?
Answer: -3.938%

Question: And the autophagy induction [1, 6]?
Answer: 114.48%

Question: And the autophagy induction [1, 7]?
Answer: 4.454%

Question: And the autophagy induction [1, 8]?
Answer: -1.856%

Question: What about the autophagy induction [1, 9] of the same compound?
Answer: -1.714%

Question: What about the autophagy induction [1, 10] of the same compound?
Answer: 114.31%

Question: And the autophagy induction [1, 11]?
Answer: 50.3971%

Question: And the autophagy induction [1, 12]?
Answer: 15.7905%

Question: And the autophagy induction [1, 13]?
Answer: 7.703%

Question: And the autophagy induction [1, 14]?
Answer: 113.866%

Question: And the autophagy induction [2, 3]?
Answer: -5.827%

Question: And the autophagy induction [2, 4]?
Answer: -6.791%

Question: And the autophagy induction [2, 5]?
Answer: -11.2953%

Question: What about the autophagy induction [2, 6] of the same compound?
Answer: -15.497%

Question: And the autophagy induction [2, 7]?
Answer: 2.006%

Question: What about the autophagy induction [2, 8] of the same compound?
Answer: -3.7569%

Question: What about the autophagy induction [2, 9] of the same compound?
Answer: 0.8793%

Question: What about the autophagy induction [2, 10] of the same compound?
Answer: 2.43%

Question: What about the autophagy induction [2, 11] of the same compound?
Answer: -6.462%

Question: And the autophagy induction [2, 12]?
Answer: -8.325%

Question: What about the autophagy induction [2, 13] of the same compound?
Answer: -2.853%

Question: And the autophagy induction [2, 14]?
Answer: -1.815%

Question: Which results are given for O=C(O)COc1cccc(CN(Cc2ccc(-n3cccn3)cc2)S(=O)(=O)c2cccnc2)c1?
Answer: autophagy induction [1, 3]: 1.733%; autophagy induction [1, 4]: -2.792%; autophagy induction [1, 5]: -2.001%; autophagy induction [1, 6]: 114.184%; autophagy induction [1, 7]: 12.9626%; autophagy induction [1, 8]: 0.7228%; autophagy induction [1, 9]: 0.396%; autophagy induction [1, 10]: 114.202%; autophagy induction [1, 11]: 2.661%; autophagy induction [1, 12]: -2.358%; autophagy induction [1, 13]: 0.08453%; autophagy induction [1, 14]: 114.175%; autophagy induction [2, 3]: 5.874%; autophagy induction [2, 4]: 2.74%; autophagy induction [2, 5]: 1.495%; autophagy induction [2, 6]: -1.697%; autophagy induction [2, 7]: -11.5162%; autophagy induction [2, 8]: -13.8805%; autophagy induction [2, 9]: -8.014%; autophagy induction [2, 10]: -12.1859%; autophagy induction [2, 11]: -5.999%; autophagy induction [2, 12]: -5.085%; autophagy induction [2, 13]: -8.443%; autophagy induction [2, 14]: 1.395%

Question: Which results are given for Cc1csc2c(N[C@@H](C)CN3CCN(S(=O)(=O)c4ccc(Cl)c(Cl)c4)CC3)ncnc12?
Answer: autophagy induction [1, 3]: -0.007707%; autophagy induction [1, 4]: -1.5%; autophagy induction [1, 5]: -0.4844%; autophagy induction [1, 6]: -654.702%; autophagy induction [1, 7]: 4.101%; autophagy induction [1, 8]: 0.5386%; autophagy induction [1, 9]: -0.3647%; autophagy induction [1, 10]: 114.139%; autophagy induction [1, 11]: -10.3141%; autophagy induction [1, 12]: -6.4207%; autophagy induction [1, 13]: -4.537%; autophagy induction [1, 14]: 114.595%; autophagy induction [2, 3]: 6.768%; autophagy induction [2, 4]: 8.8628%; autophagy induction [2, 5]: 13.6009%; autophagy induction [2, 6]: 4.711%; autophagy induction [2, 7]: 2.53%; autophagy induction [2, 8]: 6.7674%; autophagy induction [2, 9]: 12.0314%; autophagy induction [2, 10]: 11.989%; autophagy induction [2, 11]: 12.5309%; autophagy induction [2, 12]: 16.4077%; autophagy induction [2, 13]: 26.9308%; autophagy induction [2, 14]: 28.2658%

Question: CC(C)Oc1ccccc1C(=O)Nc1ccccc1C(=O)Nc1cccc(S(=O)(=O)C(F)(F)F)c1 was tested. Which autophagy induction [1, 3] did it give?
Answer: 3.012%

Question: And the autophagy induction [1, 4]?
Answer: -1.737%

Question: What about the autophagy induction [1, 5] of the same compound?
Answer: -1.42%

Question: What about the autophagy induction [1, 6] of the same compound?
Answer: 114.268%

Question: And the autophagy induction [1, 7]?
Answer: 8.776%

Question: What about the autophagy induction [1, 8] of the same compound?
Answer: 3.511%

Question: And the autophagy induction [1, 9]?
Answer: 2.272%

Question: And the autophagy induction [1, 10]?
Answer: 113.873%

Question: And the autophagy induction [1, 11]?
Answer: -16.0939%

Question: What about the autophagy induction [1, 12] of the same compound?
Answer: -18.3481%

Question: And the autophagy induction [1, 13]?
Answer: -11.2669%

Question: What about the autophagy induction [1, 14] of the same compound?
Answer: 115.068%

Question: What about the autophagy induction [2, 3] of the same compound?
Answer: -12.7089%

Question: And the autophagy induction [2, 4]?
Answer: -12.2172%

Question: What about the autophagy induction [2, 5] of the same compound?
Answer: -12.6004%

Question: What about the autophagy induction [2, 6] of the same compound?
Answer: -17.6606%

Question: What about the autophagy induction [2, 7] of the same compound?
Answer: 2.367%

Question: And the autophagy induction [2, 8]?
Answer: 0.4504%

Question: And the autophagy induction [2, 9]?
Answer: -2.457%

Question: And the autophagy induction [2, 10]?
Answer: -5.945%

Question: And the autophagy induction [2, 11]?
Answer: 11.8819%

Question: What about the autophagy induction [2, 12] of the same compound?
Answer: 14.0193%

Question: What about the autophagy induction [2, 13] of the same compound?
Answer: 13.5851%

Question: What about the autophagy induction [2, 14] of the same compound?
Answer: 17.9189%

Question: How did the autophagy induction [1, 3] turn out when N#Cc1ccc(NC(=O)Nc2ccccc2Br)c2nn[nH]c12 was run?
Answer: -0.5776%

Question: What about the autophagy induction [1, 4] of the same compound?
Answer: -3.216%

Question: What about the autophagy induction [1, 5] of the same compound?
Answer: -2.984%

Question: What about the autophagy induction [1, 6] of the same compound?
Answer: 114.391%

Question: What about the autophagy induction [1, 7] of the same compound?
Answer: 0.1454%

Question: And the autophagy induction [1, 8]?
Answer: -3.5634%

Question: What about the autophagy induction [1, 9] of the same compound?
Answer: -1.494%

Question: And the autophagy induction [1, 10]?
Answer: 114.288%

Question: What about the autophagy induction [1, 11] of the same compound?
Answer: -0.261%

Question: What about the autophagy induction [1, 12] of the same compound?
Answer: -3.379%

Question: What about the autophagy induction [1, 13] of the same compound?
Answer: -2.529%

Question: What about the autophagy induction [1, 14] of the same compound?
Answer: 114.424%

Question: What about the autophagy induction [2, 3] of the same compound?
Answer: 5.86%

Question: What about the autophagy induction [2, 4] of the same compound?
Answer: 3.694%

Question: And the autophagy induction [2, 5]?
Answer: 2.244%

Question: And the autophagy induction [2, 6]?
Answer: 1.525%

Question: What about the autophagy induction [2, 7] of the same compound?
Answer: -10.6319%

Question: And the autophagy induction [2, 8]?
Answer: -11.2857%

Question: What about the autophagy induction [2, 9] of the same compound?
Answer: -14.4856%

Question: And the autophagy induction [2, 10]?
Answer: -10.0033%

Question: And the autophagy induction [2, 11]?
Answer: -0.1618%

Question: What about the autophagy induction [2, 12] of the same compound?
Answer: -2.733%

Question: And the autophagy induction [2, 13]?
Answer: -3.711%

Question: And the autophagy induction [2, 14]?
Answer: -9.797%

Question: Which results are given for Cc1c(OCc2cccc(-c3ccc(C(=O)O)cc3)c2)cc2c(c1C)C(=O)C(C1CCCC1)C2 (stereo not drawn)?
Answer: autophagy induction [1, 3]: -1.105%; autophagy induction [1, 4]: -3.325%; autophagy induction [1, 5]: -3.23%; autophagy induction [1, 6]: 114.413%; autophagy induction [1, 7]: 3.182%; autophagy induction [1, 8]: -1.283%; autophagy induction [1, 9]: -1.767%; autophagy induction [1, 10]: 114.283%; autophagy induction [1, 11]: 2.021%; autophagy induction [1, 12]: -2.128%; autophagy induction [1, 13]: 0.06533%; autophagy induction [1, 14]: 114.104%; autophagy induction [2, 3]: 16.7916%; autophagy induction [2, 4]: 7.662%; autophagy induction [2, 5]: 9.473%; autophagy induction [2, 6]: -0.5665%; autophagy induction [2, 7]: 6.511%; autophagy induction [2, 8]: 6.165%; autophagy induction [2, 9]: 2.879%; autophagy induction [2, 10]: -1.177%; autophagy induction [2, 11]: 6.9%; autophagy induction [2, 12]: 7.1725%; autophagy induction [2, 13]: 8.617%; autophagy induction [2, 14]: 11.2815%

Question: How did the autophagy induction [1, 3] turn out when CCCCCNC(=O)NS(=O)(=O)c1cc([N+](=O)[O-])ccc1NC1CCCCC1 was run?
Answer: -2.4637%

Question: What about the autophagy induction [1, 4] of the same compound?
Answer: -2.287%

Question: What about the autophagy induction [1, 5] of the same compound?
Answer: -1.179%

Question: What about the autophagy induction [1, 6] of the same compound?
Answer: 114.19%

Question: And the autophagy induction [1, 7]?
Answer: -2.891%

Question: And the autophagy induction [1, 8]?
Answer: -2.398%

Question: What about the autophagy induction [1, 9] of the same compound?
Answer: -2.2883%

Question: What about the autophagy induction [1, 10] of the same compound?
Answer: 114.254%

Question: And the autophagy induction [1, 11]?
Answer: -6.232%

Question: And the autophagy induction [1, 12]?
Answer: -4.153%

Question: And the autophagy induction [1, 13]?
Answer: -3.872%

Question: What about the autophagy induction [1, 14] of the same compound?
Answer: 114.439%

Question: And the autophagy induction [2, 3]?
Answer: 1.311%

Question: And the autophagy induction [2, 4]?
Answer: 2.21%

Question: And the autophagy induction [2, 5]?
Answer: -1.399%

Question: And the autophagy induction [2, 6]?
Answer: -21.9841%

Question: And the autophagy induction [2, 7]?
Answer: 12.2747%

Question: What about the autophagy induction [2, 8] of the same compound?
Answer: 3.055%

Question: What about the autophagy induction [2, 9] of the same compound?
Answer: 0.8075%

Question: And the autophagy induction [2, 10]?
Answer: -5.198%

Question: And the autophagy induction [2, 11]?
Answer: 0.1217%

Question: And the autophagy induction [2, 12]?
Answer: -4.73%

Question: What about the autophagy induction [2, 13] of the same compound?
Answer: -6.08%

Question: What about the autophagy induction [2, 14] of the same compound?
Answer: -12.7619%
